From patent publication US20250057994A1, “LABELED COMPOUNDS AND CALCIUM SENSING RECEPTOR LIGANDS FOR IMAGING AND USES THEREOF” (The University of North Carolina at Chapel Hill, priority 2021, published 2025)

Columns and labels:
CSR [1] = biological target: T1, CSR (Rattus norvegicus, UniProt P48442); assay: Small animal PET/CT imaging of parathyroid in rats (static and dynamic); type: in vivo
T1 construct: Normal rats were used as an animal model for initial CSR agent imaging; from tissue; host or cells: rat parathyroid (also lung and other tissues), in vivo and excised sections
T1 sequence (P48442 20-1079): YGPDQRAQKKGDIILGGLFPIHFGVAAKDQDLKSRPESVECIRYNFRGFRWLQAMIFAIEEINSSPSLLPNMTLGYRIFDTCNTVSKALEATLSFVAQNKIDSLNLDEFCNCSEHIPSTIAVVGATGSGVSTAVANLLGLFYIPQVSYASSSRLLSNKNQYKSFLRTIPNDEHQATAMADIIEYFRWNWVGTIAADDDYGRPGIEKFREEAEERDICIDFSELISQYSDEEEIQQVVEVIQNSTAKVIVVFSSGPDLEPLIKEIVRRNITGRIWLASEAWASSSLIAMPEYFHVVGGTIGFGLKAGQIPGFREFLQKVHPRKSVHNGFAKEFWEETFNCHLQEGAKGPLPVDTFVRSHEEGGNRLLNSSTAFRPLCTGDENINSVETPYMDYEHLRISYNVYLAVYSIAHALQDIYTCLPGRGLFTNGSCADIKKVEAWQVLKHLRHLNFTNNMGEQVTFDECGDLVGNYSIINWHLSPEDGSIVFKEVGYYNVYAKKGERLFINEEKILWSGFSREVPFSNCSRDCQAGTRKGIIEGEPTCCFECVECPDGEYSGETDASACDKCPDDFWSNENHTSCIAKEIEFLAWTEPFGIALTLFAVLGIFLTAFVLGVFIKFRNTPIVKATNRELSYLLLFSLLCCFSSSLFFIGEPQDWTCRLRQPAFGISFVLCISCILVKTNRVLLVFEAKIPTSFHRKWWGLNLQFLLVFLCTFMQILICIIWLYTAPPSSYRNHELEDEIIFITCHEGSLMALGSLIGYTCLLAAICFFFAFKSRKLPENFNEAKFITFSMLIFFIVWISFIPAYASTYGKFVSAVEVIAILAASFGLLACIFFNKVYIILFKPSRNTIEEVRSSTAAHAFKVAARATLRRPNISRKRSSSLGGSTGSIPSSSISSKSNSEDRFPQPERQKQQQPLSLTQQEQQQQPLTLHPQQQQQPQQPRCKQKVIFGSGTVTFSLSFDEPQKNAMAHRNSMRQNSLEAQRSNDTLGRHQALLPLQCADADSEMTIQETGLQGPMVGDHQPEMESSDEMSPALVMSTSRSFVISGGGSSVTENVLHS
Description: Normal rats were used as an animal model for initial CSR agent imaging. Surgical dissection of the mouse parathyroid gland is too technically difficult, in contrast to the rat which has approximately 10 times the body mass of a mouse. Analyses were performed by individuals with extensive experience on parathyroid identification for pathology. autoradiography, and microscope study. In brief, animals were anesthetized with isoflurane. For PET probes, dynamic PET imaging was performed after the administration of 1 to 2 mCi of tracer, and animals were imaged with 2 h dynamic scan. A CT scan was also obtained for anatomic registration and attenuation correction. Images were reconstructed to create representative dynamic images for the study (10 min epochs). These images were qualitatively graded to assess the visibility of the parathyroid gland against background tissues. PET kinetic modeling was also performed to evaluate the relative kinetics of uptake of the parathyroid gland compared to the thyroid and other tissues.
^18F-cinacalcet could detect parathyroid gland in rats by targeting CSR. Parathyroid gland are very small (3-5 mm in human) and generally below the detection limit of most imaging methods. The novel CSR PET agent ^18F-cinacalcet was injected in rat and small animal PET imaging was performed. […] In order to confirm the observed signal did come from the very small parathyroid gland instead of thyroid or other tissue, the rats were sacrificed and the localization of radioactivity in the gland tissue was evaluated by autoradiography coupled with pathology staining of neighboring slides.
Small animal-PET CT imaging of parathyroid in rodents. Because the parathyroid is rather small, rats were used instead of mice to evaluate the agent. Static PET scans were acquired in rats at 0.5 h, 1 h and 2 h post injection of [^18F]F-ZW-cinacalcet. Representative coronal PET images are shown in FIG. 15 panel A. Parathyroid could be visualized on the image at the early time point of 0.5 h with a radiotracer uptake of 0.28±0.16% ID/g and parathyroid/muscle ratio of 4.9±0.93.
Dynamic PET images of [^18F]F-ZW-cinacalcet in rats were acquired for 60 minutes. [^18F]F-ZW-cinacalcet accumulated into parathyroid at the earliest timepoints and peaked at about 7 min post injection (0.33±0.05% ID/g), followed by a gradual decline to 0.17±0.01% ID/g at 60 min post injection.
Uptake peaked at 2 min post injection (lung: 1.00±0.19% ID/g; heart: 0.95±0.14% ID/g), with similar kinetics until 10 min post injection. Then, the heart uptake dropped rapidly to 0.15±0.27% ID/g at 60 min post injection, whereas the lung uptake remained at a high level at 60 min post injection of 0.41±0.07% ID/g. In addition, the radiotracer was also observed entering into the brain with a stable uptake level of ˜0.2% ID/g.

[2] = In vitro stability of 18F-cinacalcet (incubation, HPLC purity); type: physicochemical
Description: (§1) In a non-human primate imaging experiment, the blood samples were drawn from vein at 1 and 3 h post injection.
(§2) Stability of [^18F]F-ZW-cinacalcet. The photoredox labeling method allows access to a new category of PET agent bearing a SP^2-F bond. [^18F]F-ZW-cinacalcet has improved stability compared to the CF3 labeling method. The formulated [^18F]F-ZW-cinacalcet was first incubated in PBS (Phosphate buffered saline containing 8% EtOH), and aliquots were taken for analysis at different time points. […] Subsequently, the in vivo stability of [^18F]F-ZW-cinacalcet was tested in a non-human primate. After injection, a blood sample was collected at 1 and 3 h time points. […] Because the imaging was finished within the first hour, the metabolites were not determined in this study

[3] = Octanol water partition coefficient (Log P); type: physicochemical; conditions: 1-octanol/water; 1-octanol and water system, average value
Excerpt: Determination of Octanol water Partition Coefficient (Log P).

[4] = In vivo stability in non-human primate blood samples; conditions: for In vivo stability in blood: non-human primate
Description: as §1, §2

CSR [5] = biological target: T1, CSR; assay: Autoradiography with matched CSR IHC staining of excised rat tissue; type: in vivo; conditions: rats
Description: After the imaging of each animal, the parathyroid glands were carefully dissected out and the uptake in parathyroid gland was measured, then subsequently evaluated pathologically to confirm the histology. Autoradiography was performed to study its distribution in gland area. Optical imaging guidance during the surgical procedures was also performed using the developed CSR PET-fluorescence probes. During excision, the surgeon also graded the visibility of the lesions with and without the use of fluorescence. Other critical organs, including the thyroid gland, nearby tissues, and major organs were also dissected out to evaluate the relative uptake within these organs. The localization of radioactivity in the gland tissue was also confirmed by autoradiography coupled with pathology staining of neighboring slides.
^18F-cinacalcet could detect parathyroid gland in rats by targeting CSR. […] In order to confirm the observed signal did come from the very small parathyroid gland instead of thyroid or other tissue, the rats were sacrificed and the localization of radioactivity in the gland tissue was evaluated by autoradiography coupled with pathology staining of neighboring slides.
Autoradiography and pathology. […] Quantitative analysis of autoradiography and IHC staining was expressed as a mean integrated density (Mean IntDen). […]

[6] = dynamic PET, 2 min post injection
[7] = dynamic PET, 60 min post injection
[8] = static PET, 0.5 h post injection

Brain uptake, stable level (CSR [1]; dynamic PET): ~0.2 % ID/g
Heart uptake at peak (CSR [1]; [6]): 0.95±0.14 % ID/g
Lung uptake at peak (CSR [1]; [6]): 1.00±0.19 % ID/g
Muscle uptake (CSR [1]; dynamic PET, 20 min post injection): < 0.06 % ID/g
Heart uptake (CSR [1]; [7]): 0.15±0.27 % ID/g
Lung uptake (CSR [1]; [7]): 0.41±0.07 % ID/g
Parathyroid uptake (CSR [1]; [7]): 0.17±0.01 % ID/g
Parathyroid uptake at peak (CSR [1]; dynamic PET, about 7 min post injection): 0.33±0.05 % ID/g
Time of peak lung and heart uptake (CSR [1]; dynamic PET, post injection): 2 min
Time of peak parathyroid uptake (CSR [1]; dynamic PET, post injection): about 7 min
PET signal in neck area (CSR [1]; small animal PET): clearly demonstrated two hot spots
Parathyroid radiotracer uptake (CSR [1]; [8]): 0.28±0.16 % ID/g
Parathyroid/muscle ratio (CSR [1]; [8]): 4.9±0.93
Parathyroid radioactivity (CSR [1]; static PET, 2 h time point): reverted to the background level
In vitro stability, purity ([2]; 6 h time point): > 90%
Stability in PBS, purity ([2]; PBS containing 8% EtOH, 4 h post incubation): > 95%
logP [3]: 1.95 ± 0.02
In vivo stability in blood ([4]; 1 h post injection): majority of the agent remained untouched
In vivo stability in blood ([4]; 1 h post injection, listed as 18F-cinacalcet): rather stable
In vivo stability in blood ([4]; 3 h post injection): hydrophilic metabolite was observed
In vivo stability in blood ([4]; 3 h post injection, listed as 18F-cinacalcet): significant metabolites are observed
Parathyroid/thyroid ratio in autoradiography (Mean IntDen) (CSR [5]; excised tissue sections): 6.60±1.28
Localization of radioactivity by autoradiography and pathology staining (CSR [5]; neighboring slides): correlated well with parathyroid gland
SMILES: C[C@@H](NCCCc1cccc(C(F)(F)F)c1)c1ccc([18F])c2ccccc12 [[^18F]F-ZW-cinacalcet]
Blood metabolic stability ([4]; Rhesus Macaque, overall judgement): acceptable stability for imaging applications
